Test results from patent US8420823B2, “Long-chain fatty acyl elongase inhibitor comprising arylsulfonyl derivative as active ingredient” (MSD K.K., priority 2008, dated 2013).
Where a name gives a salt, the structure may show the parent alone.

These compounds were tested against T1, human LCE (Homo sapiens, UniProt Q9H5J4) (assay: LCE enzyme activity-inhibitory test). Conditions: [14C]-malonyl CoA / palmitoyl CoA substrate, 37° C., 90 minutes.
T1 sequence (Q9H5J4 1-265): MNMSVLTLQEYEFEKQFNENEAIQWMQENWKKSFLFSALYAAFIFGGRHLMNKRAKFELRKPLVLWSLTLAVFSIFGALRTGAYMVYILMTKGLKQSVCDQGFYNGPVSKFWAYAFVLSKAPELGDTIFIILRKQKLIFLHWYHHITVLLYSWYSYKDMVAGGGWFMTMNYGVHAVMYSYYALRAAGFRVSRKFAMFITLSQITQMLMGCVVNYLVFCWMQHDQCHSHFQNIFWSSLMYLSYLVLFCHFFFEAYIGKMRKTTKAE
Format: biochemical
Description: Pharmacological Test Example 1 (LCE Enzyme Activity-inhibitory Test)
A test compound was dissolved in dimethyl sulfoxide (DMSO to be 10 mM), and then diluted with DMSO to prepare a 1000-fold concentrated solution of the test concentration. An improved Moon et al's method (J. Biol. Chem., Vol. 276, pp. 45358-45366, 2001) was employed for the LCE enzyme activity-inhibitor test. Concretely, the diluted compound was applied to a 96-well assay plate (Corning, 96-well assay block) in an amount of 1.0 μL/well; 50 μL of a phosphate buffer solution (100 mM potassium phosphate buffer, pH 6.5), and 25 μL of a substrate solution (100 mM potassium phosphate buffer (pH 6.5), 4.0 μM rotenone, 80 μM fatty acid-free bovine serum albumin, 160 μM palmitoyl CoA, 80 μM malonyl CoA, 3.5 μM [^14C]-malonyl CoA (1.92 GBq/mmol, by Amersham)) were added to each well; 25 μL of an enzyme solution (100 mM potassium phosphate buffer (pH 6.5), 100 μg/mL human LCE) was added thereto; the top of the plate was airtightly sealed up; and this was incubated with gently shaking and stirring at 37° C. for 90 minutes. Next, 100 μL of 5 M hydrochloric acid was added to each well, and the assay plate was stirred at room temperature for 5 minutes to stop the enzyme reaction with hydrolyzing the acyl CoA. Next, the enzyme reaction solution in each well was adsorbed by each well of a 96-well GF/C filter plate (Perkin Elmer Unifilter 96 GF/C); the individual wells were washed with water to remove the non-adsorbed malonyl CoA; and the GF/C filter plate was dried at 50° C. for 60 minutes. Next, 30 μL of a scintillator (Perkin Elmer Microscinti 0) was added to each well; then the top of the plate was sealed up; and the fixed [^14C] radioactivity was measured with a microplate scintillation counter (Perkin Elmer TopCount) to be the enzyme activity. The human LCE enzyme-inhibitory activity of the test compound was calculated, based on the radioactivity of the DMSO-added well with no test compound therein as a control.

SMILES | IC50
CC(C)Oc1ccc(NC(=O)c2cccc(S(=O)(=O)N3CCCC(CN4CCOCC4)C3)c2)cc1 (stereo not shown) [Example 14, N-(4-Isopropoxyphenyl)-3-{[3-(morpholin-4-ylmethyl)piperidin-1-yl]sulfonyl}benzamide trifluoroacetate] | 1200 nM
CC(C)c1ccc(NC(=O)c2cccc(S(=O)(=O)N3CCCC3)c2)cc1 [Example 28, N-(4-isopropylphenyl)-3-(pyrrolidin-1-ylsulfonyl)benzamide] | 170 nM
CC(C)Oc1ccc(NC(=O)c2cccc(S(=O)(=O)N3CCC[C@H](C(N)=O)C3)c2)nc1 [Example 59, (3S)-1-[(3-{[(5-isopropoxypyridin-2-yl)amino]carbonyl}phenyl)sulfonyl]piperidine-3-carboxamide] | 110 nM
CC(C)Oc1ccc(NC(=O)c2cccc(S(=O)(=O)N3CCCC(c4nncn4C)C3)c2)cc1 (stereo not shown) [Example 11, N-(4-isopropoxyphenyl)-3-{[3-(4-methyl-4H-1,2,4-triazol-3-yl)piperidin-1-yl]sulfonyl}benzamide trifluoroacetate] | 1000 nM
CC(C)Oc1ccc(NC(=O)c2cccc(S(=O)(=O)N3CC4CCC3CC4)c2)cc1 [Example 16, 3-(2-Azabicyclo[2.2.2]oct-2-ylsulfonyl)-N-(4-isopropoxyphenyl)benzamide] | 110 nM
O=C(Nc1ccc(F)cc1)c1cccc(S(=O)(=O)N2CCCCC2)c1 [Example 71, N-(4-fluorophenyl)-3-(piperidin-1-ylsulfonyl)benzamide] | 14000 nM
CC(C)c1ccc(NC(=O)c2cccc(S(=O)(=O)N3CCCCCC3)c2)cc1 [Example 27, 3-(Azepan-1-ylsulfonyl)-N-(4-isopropylphenyl)benzamide] | 190 nM
CC(C)c1ccc(NC(=O)c2cccc(S(=O)(=O)N3CCCCC3)c2)cc1 [Example 77, N-(4-isopropylphenyl)-3-(piperidin-1-ylsulfonyl)benzamide] | 34 nM
CCC(C)Oc1ccc(NC(=O)c2cccc(S(=O)(=O)c3ccccn3)c2)c(F)c1 (stereo not shown) [Example 128, N-(4-sec-butoxy-2-fluorophenyl)-3-(pyridin-2-ylsulfonyl)benzamide] | 190 nM
O=C(Nc1ccon1)c1cccc(S(=O)(=O)N2CCCCC2)c1 [Example 82, N-isoxazol-3-yl-3-(piperidin-1-ylsulfonyl)benzamide] | 7300 nM
CC(C)Oc1cc(NC(=O)c2cccc(S(=O)(=O)N3CCCC3)c2)[nH]n1 [Example 70, N-(3-isopropoxy-1H-pyrazol-5-yl)-3-(pyrrolidin-1-ylsulfonyl)benzamide hydrochloride] | 6.8 nM
CC(C)Oc1ccc(NC(=O)c2cccc(S(=O)(=O)NC(C3CC3)C3CC3)c2)cc1 [Example 6, 3-{[(dicyclopropylmethyl)amino]sulfonyl}-N-(4-isopropoxyphenyl)benzamide] | 1100 nM
CSc1ccc(NC(=O)c2cccc(S(=O)(=O)N3CCCCC3)c2)cc1 [Example 79, N-[4-(methylthio)phenyl]-3-(piperidin-1-ylsulfonyl)benzamide] | 2200 nM
O=C(NC1CCc2ccccc21)c1cccc(S(=O)(=O)N2CCCCC2)c1 (stereo not shown) [Example 85, N-(2,3-dihydro-1H-inden-1-yl)-3-(piperidin-1-ylsulfonyl)benzamide] | 6000 nM
COc1cccc(NC(=O)c2cccc(S(=O)(=O)N3CCCCC3)c2)c1 [Example 81, N-(3-methoxyphenyl)-3-(piperidin-1-ylsulfonyl)benzamide] | 1900 nM
CC(C)Oc1ccc(NC(=O)c2cccc(S(=O)(=O)N3CCc4[nH]ncc4C3)c2)cc1 [Example 3, N-(4-isopropoxyphenyl)-3-(1,4,6,7-tetrahydro-5H-pyrazolo[4,3-c]pyridin-5-ylsulfonyl)benzamide trifluoroacetate] | 7400 nM
CC(C)Oc1ccc(NC(=O)c2cccc(S(=O)(=O)N3CCCC(OCc4cccnc4)C3)c2)cc1 (stereo not shown) [Example 20, N-(4-isopropoxyphenyl)-3-{[3-(pyridin-3-ylmethoxy)piperidin-1-yl]sulfonyl}benzamide trifluoroacetate] | 530 nM
O=C(NCc1ccccc1)c1cccc(S(=O)(=O)N2CCCCC2)c1 [Example 73, N-benzyl-3-(piperidin-1-ylsulfonyl)benzamide] | 5500 nM
CC(C)Oc1ccc(NC(=O)c2cccc(S(=O)(=O)N3CCC(F)CC3)c2)cc1 [Example 15, 3-[(4-Fluoropiperidin-1-yl)sulfonyl]-N-(4-isopropoxyphenyl)benzamide] | 120 nM
CC(C)c1ccc(NC(=O)c2cccc(S(=O)(=O)NC3CCCCC3)c2)cc1 [Example 38, 3-[(Cyclohexylamino)sulfonyl]-N-(4-isopropylphenyl)benzamide] | 1000 nM
COc1ccccc1NC(=O)c1cccc(S(=O)(=O)N2CCCC(CO)C2)c1 (stereo not shown) [Example 42, 3-{[3-(hydroxymethyl)piperidin-1-yl]sulfonyl}-N-(2-methoxyphenyl)benzamide] | 500 nM

The next lines start with the values.

IC50 | SMILES
3400 nM | CC(C)c1ccc(NC(=O)c2cncc(S(=O)(=O)c3ccccc3)c2)cc1 [Example 158, N-(4-isopropylphenyl)-5-(phenylsulfonyl)nicotinamide]
1600 nM | Cc1ccnc(S(=O)(=O)c2cccc(C(=O)Nc3ccc(OC(C)C)cc3)c2)c1 [Example 131, N-(4-isopropoxyphenyl)-3-[(4-methylpyridin-2-yl)sulfonyl]benzamide]
210 nM | COc1ccccc1NC(=O)c1cccc(S(=O)(=O)C2CCCCC2)c1 [Example 145, 3-(Cyclohexylsulfonyl)-N-(2-methoxyphenyl)benzamide]
300 nM | CC(C)Oc1ccc(NC(=O)c2cc(S(=O)(=O)N3CCCCC3)ccc2OCC(=O)O)cc1 [Example 154, [2-{[(4-Isopropoxyphenyl)amino]carbonyl}-4-(piperidin-1-ylsulfonyl)phenoxy]acetic acid]
390 nM | COc1cccnc1NC(=O)c1cccc(S(=O)(=O)c2ccccn2)c1 [Example 120, N-(3-methoxypyridin-2-yl)-3-(pyridin-2-ylsulfonyl)benzamide]
3200 nM | COc1cc(-c2ccccc2)cnc1NC(=O)c1cccc(S(=O)(=O)N2CCCC2)c1 [Example 109, N-(3-methoxy-5-phenylpyridin-2-yl)-3-(pyrrolidin-1-ylsulfonyl)benzamide]
2500 nM | COc1ncccc1NC(=O)c1cccc(S(=O)(=O)N2CCCCC2)c1 [Example 97, N-(2-methoxypyridin-3-yl)-3-(piperidin-1-ylsulfonyl)benzamide]
5700 nM | COc1ccc(C(=O)Nc2ccc(C(C)C)cc2)cc1S(=O)(=O)N1CCCCC1 [Example 155, N-(4-isopropylphenyl)-4-methoxy-3-(piperidin-1-ylsulfonyl)benzamide]
160 nM | COc1cccnc1NC(=O)c1cccc(S(=O)(=O)N2CCCC2)c1 [Example 104, N-(3-methoxypyridin-2-yl)-3-(pyrrolidin-1-ylsulfonyl)benzamide]
250 nM | COc1cc(Sc2ccccc2)cnc1NC(=O)c1cccc(S(=O)(=O)N2CCCC2)c1 [Example 111, N-[3-methoxy-5-(phenylthio)pyridin-2-yl]-3-(pyrrolidin-1-ylsulfonyl)benzamide]
210 nM | O=C(Nc1ccc(Oc2ccccc2)cc1)c1cccc(S(=O)(=O)N2CCCCC2)c1 [Example 87, N-(4-phenoxyphenyl)-3-(piperidin-1-ylsulfonyl)benzamide]
130 nM | CC(C)Oc1ccc(NC(=O)Cc2cccc(S(=O)(=O)N3CCCCC3)c2)cc1 [Example 160, N-(4-isopropoxyphenyl)-2-[3-(piperidin-1-ylsulfonyl)phenyl]acetamide]
5100 nM | CC(C)(O)c1ccc(NC(=O)c2cccc(S(=O)(=O)N3CCCCC3)c2)cc1 [Example 94, N-[4-(1-hydroxy-1-methylethyl)phenyl]-3-(piperidin-1-ylsulfonyl)benzamide]
3600 nM | CC(C)Oc1ccc(NC(=O)c2cc(S(=O)(=O)N3CCCCC3)ccc2O)cc1 [Example 151, 2-Hydroxy-N-(4-isopropoxyphenyl)-5-(piperidin-1-ylsulfonyl)benzamide]
240 nM | CC(C)Oc1ccc(NC(=O)c2cccc(S(=O)(=O)c3ncccn3)c2)nc1 [Example 138, N-(5-isopropoxypyridin-2-yl)-3-(pyrimidin-2-ylsulfonyl)benzamide]
210 nM | COc1cc(Oc2ccccc2)cnc1NC(=O)c1cccc(S(=O)(=O)N2CCCC2)c1 [Example 110, N-(3-methoxy-5-phenoxypyridin-2-yl)-3-(pyrrolidin-1-ylsulfonyl)benzamide]
